Experimental data from patent publication US20110263696A1, “PROANTHOCYANIDINS FROM CINNAMON AND ITS WATER SOLUBLE EXTRACT INHIBIT TAU AGGREGATION” (priority 2007, published 2011).

Key:
tau fragment (tau 187) = molecular target: T1, tau fragment (tau 187) (Homo sapiens, UniProt P10636); experiment: Thioflavin T fluorescence assay of tau aggregation; type: biochemical
T1 construct: his; made in house; host or cells: bacteria
Procedure: In one illustrative embodiment of the invention, the effects of cinnamon proanthocyanidin or its extract can be determined by fluorescence measurements in the presence of a thioflavin derivative. If aggregation proceeds through formation of an ordered structure, enhancement of thioflavin occurs. This method can be used to quantify the effects of the proanthocyanidins on the rate and extent of tau aggregation.
An alternative method is to incubate tau in the absence of thioflavin under conditions that cause aggregation in the absence and presence of cinnamon proanthocyanidin. At different times aliquots are removed to measure the aggregation by examining the fluorescence of thioflavin T added to these aliquots. As thioflavin can affect aggregation itself and could compete partly with binding of proanthocyanidin this modified assay could maximize the effect of proanthocyanidin. Because it would necessitate removing aliquots from the reaction at different times and mixing in new reagents, it is less convenient and prone to additional errors.
This conclusion was reached by measuring changes in fluorescence of thioflavin T under conditions well documented to cause formation of tau aggregates.

tau filaments = experiment: Transmission electron microscopy of tau filaments; type: biochemical; conditions: aggregating conditions
Description: In one illustrative embodiment of the invention, transmission electron microscopy, is a highly desirable technique for studies of aggregation with heparin and water or with heparin and purified proanthocyanidin or cinnamon extracts from Cinnamomum zeylanicum, Cinnamomum cassia, or Cinnamomum loueirii. It provides definition of what the aggregates actually are, e.g., filaments and their abundance, sizes, and shapes.

tau = experiment: Tau aggregation / AD fiber formation in vitro (method not specified); type: biochemical
Procedure: In a first illustrative embodiment of an extraction procedure of the invention, an extract is obtained by using nanopure water equal to 10 times the weight of cinnamon. The mixture is heated for 10 minutes at 95° C., cooled, and centrifuged at 14,000 rpm. The nearly clear supernatant is centrifuged again and then the clear supernatant is filtered through 0.4 and 0.2 micron filters and lyophilized. A fluffy pale tan colored powder can be obtained.

tau187 = molecular target: T2, tau187 (Homo sapiens, UniProt P10636); experiment: Electron microscopy of tau187 fibers; type: biochemical; conditions: tau187 50 uM, heparin 0.1 mg/ml; trimer 200 uM (FIG. 6)
T2 construct: his; made in house; host or cells: bacteria
Procedure: FIG. 6. […] Aggregation of tau^187 (50 uM) was initiated with heparin (0.1 mg/ml) in 20 mM NaPO4, pH 7.0. in the presence of: no proanthocyanidin (left panel), or 200 uM purified A-type trimer (right panel). Scale: Bars=500 nm
FIG. 13. Effect of oxidized cinnamon on tau filament formation. […] Left panel: no cinnamon; right panel 10 μM oxidized cinnamon.
FIG. 15A. […] 50 μM Tau^187 was incubated with 0.11 mg/ml heparin (18 kDa) at 23° C. Aggregation was monitored by turbidity (OD350). Cinnamaldehyde was present at a final concentration of 0, 50 and 100 μM. FIG. 15B. Electron microscopy of tau fibers in the presence of cinnamaldehyde (CA). Tau fibers were visualized by electron microscopy after 5 hrs of aggregation in the presence of: 0 CA (left panel); B) 100 uM CA (right panel). […] FIG. 15 C. Trans-cinnamaldehyde chemical structure.
Two hexapeptide motifs in tau are critical for tau aggregation and fiber formation (see, e.g. von Bergen et al., Proc Nad Acad Sci USA 97, 5129-34 (2000)). These motifs lie in the first and second inter-repeat regions of the MT binding domain (FIG. 5), and it is known that engineered truncation fragments of tau that contain these motifs often undergo aggregation into fibers even more efficiently than the full-length molecule (see, e.g. Barghorn et al., Biochemistry 41, 14885-96 (2002)). […]

[1] = tested on: tau-dependent MT assembly; experiment: Tau-dependent microtubule assembly, turbidity OD350; type: biochemical; conditions: tubulin 5 uM, tau187, turbidity OD350
Procedure: FIG. 9. […] Tubulin (5 uM) was incubated (a) alone, or with (b) CE, (c) tau or (d) both. MT assembly was monitored by turbidity at OD350 in a continuous spectrophotometric assay.
The normal function of tau in neurons is to regulate MT assembly and dynamics. Thus it is desirable for a potential AD therapeutic to inhibit tau aggregation but not impede normal tau function. To test this, purified tubulin was incubated with either CE, tau187 or both, and MT assembly was monitored by solution turbidity. […] The reason for this is unclear, but since tau is normally an unstructured molecule, it is possible that CE promotes a conformer in tau that favors MT binding. Thus CE and proanthocyanidins appear to act as specific inhibitors of tau aggregation that are free of side effects on normal neuron function.

tau polypeptides = experiment: Light scattering measurements (absorbance at 350 nm) of tau aggregation; type: biochemical, human
Procedure: FIG. 11. Dose response of cinnamon (oxidized) on tau aggregation. […] In this experiment, cinnamon was incubated overnight in 10 mM NH4OH.
FIG. 12. Effect of cinnamon A trimer on light scattering of tau.
In one illustrative embodiment of the invention, the effects of cinnamon extract or purified cinnamon proanthocyanidins on tau aggregation can be followed readily in a spectrophotometer by measuring the change in absorbance at 350 nm. The association of tau promoted by heparin causes an increase in absorbance. […] Different buffers and temperatures may be used if desired to study factor influencing aggregation.

Sequence of tau (P10636 572-758 limits assumed): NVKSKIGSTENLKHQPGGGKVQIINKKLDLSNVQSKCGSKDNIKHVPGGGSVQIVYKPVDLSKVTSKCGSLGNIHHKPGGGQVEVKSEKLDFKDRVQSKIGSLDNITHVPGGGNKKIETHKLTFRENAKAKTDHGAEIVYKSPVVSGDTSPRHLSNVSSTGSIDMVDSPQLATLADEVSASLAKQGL
Sequence of tau polypeptides (P10636 572-758 limits assumed): as above
Sequence of tau filaments (P10636 572-758 limits assumed): as above
T1 sequence (P10636 572-758 limits assumed): as above
T2 sequence (P10636 572-758 limits assumed): as above

## A-linked proanthocyanidin trimer [A-type trimer]
Tau fragment (tau 187)
  Inhibition of tau 187 aggregation by thioflavin T fluorescence: reduces aggregation of tau
Tau filaments
  Formation of tau filaments by transmission electron microscopy: inhibited
tau; complete inhibition of tau aggregation/AD fiber formation
  Concentration that completely inhibits tau aggregation in vitro: 0.17 mg/ml PA trimer
tau; same amount of PA trimer, fraction of CE effect
  Effectiveness of purified PA trimer relative to CE: ½
tau187
  Inhibition of tau187 aggregation by EM: effectively inhibited
[1]
  Effect on tau-dependent MT assembly: does not inhibit
Tau polypeptides
  Inhibition of tau aggregation by light scattering: inhibits the aggregation
